“Also recorded” adds a separate entry of the source.
Key:
insulin resistance (IR) [1] = test: Glucose supply and insulin demand model: effect on insulin resistance; format: in vivo, human
Protocol: (§1) Therapeutic targets of the glucose supply (CE, 1+2; HGU, 3; GNG, 4; IR, 5) and insulin demand (PGU, 6; PIE, 7) model are presented in FIG. 1. To identify quantitative differences between antidiabetic agents on CE, HGU, GNG, IR, PGU, and PIE, multidatabase searches (Cochrane Central Register of Controlled Trials and Cochrane Register of Systematic Reviews, Embase, OVID Healthstar, OVID Journals, and PubMed) were conducted cross-referencing title and keywords for all selected antidiabetic therapies and their respective targets.
(§2) Alpha-glucosidase, biguanide, and thiazolidinedione (TZD) studies with long-term, pre-post design at maximal therapeutic doses were identified to simulate chronic administration. To maintain consistency with cardiovascular trials and accommodate known influences of hyperglycemia and hyperinsulinemia on the respective targets,^13-16 studies including patients with HbA1c in the range of 6-8% and body mass index (BMI)≧30 kg/m^2 were preferentially selected. In the event multiple studies were available to identify the effect of an agent on a therapeutic target, the mean percent change was used. Conversely, if there was evidence that an agent would elicit a response on a given target but no mathematical representation of the difference was provided, conservative estimates consistent with the scale of other agents and the degree of glucose regulation were instituted to best represent the expected effect. Individual agents were then characterized for the 24 h percent change from baseline for CE, HGU, GNG, IR, PGU, and PIE. Carbohydrate exposure was determined as the combined effect of caloric intake and intestinal carbohydrate absorption. Hepatic glucose uptake was defined as the reported value obtained immediately following oral glucose loading. Because GNG is known to be enhanced in the fasting state and persistent throughout the prandial phase,^17,18 effect was determined during the fasting state and considered equivalent throughout the prandial phase. For studies evaluating fasting glucose and insulin concentrations, an index of IR was determined by homeostasis model assessment of insulin resistance (HOM-AIR) using the following formula: Insulin (mU/liter)×Glucose (mmol)/22.5.^19 To account for known differences in secretory and uptake dynamics during the fasting and prandial phases, studies identifying the impact of therapies during the fasting state (or simulated hyperinsulinemic euglycemic clamp) and prandial phase (or oral glucose load insulin clamp) were specifically identified for changes in PGU (glucose infusion rate) and PIE (insulin concentrations) according to Equation (1): […]
(§3) For sulfonylurea and insulin-based therapies, insulin concentration time profiles were obtained and superimposed on the baseline 24 h insulin concentration time profile of T2D patients (FIG. 2) to calculate the increase in PIE (trapezoidal rule).^20 Calculated increases in incremental and cumulative insulin exposure were correlated to known insulin dose-response effects on HGU, GNG, and PGU (FIG. 3),^18,21 according to the equation y=mx+b. Twenty-four-hour increases in HGU, PGU, and PIE and decreases in GNG were compared to baseline values and percent change calculated.
(§4) With alpha-glucosidase, biguanide, TZD, secretagogue, and insulin therapies characterized for their respective impacts on CE, HGU, GNG, IR, PIE, and PGU, identification of their effect on the glucose supply (decrease in CE, increase in HGU, decrease in GNG, decrease in IR) and insulin demand (increase in PIE, increase in PGU) dynamic was assessed according to Equation (2), which provides the SD ratio according to the invention: […]

[2] = test system: hepatic glucose uptake (HGU); test: Glucose supply and insulin demand model: effect on hepatic glucose uptake; format: in vivo, human
Protocol: as §1, §2, §3, §4

metabolic syndrome = test: FS index / neural net model of cardiovascular risk in metabolic syndrome patient populations; format: in vivo, human
Protocol: The FS index of MS comprises the following parameters: Fasting Blood Glucose, Fasting Insulin, HBA1c, BMI, AST, Triglycerides, Glucose Supply-Demand (S/D) index, and in certain cases, Proinsulin. Each parameter was mathematically arranged to increase as MS worsened, and weighted approximately equally in the prediction of MS progression and risk for CV events. […] FS index values were calculated from serial laboratory and clinical data over timeframes ranging between 2 and 10 years.
Neural Net Models and Data Display Methods. […] Unless otherwise stated, standard deviations (z-score) vs. time are presented in the individual and mean population graphics.
For purposes of analysis, clinical and laboratory parameters were converted into modified z-scores as follows: • A mean normal value (described as “mean” in the following) was selected based on review of literature and various published laboratory compendia. The Standard Deviation (SD) of each parameter was set to one half of the normal range. The modified z-score is calculated as follows: z=(Patient value−“mean”)/SD • On the graphs, the z-score is reported as the number of SD.
The FS index considered the following: Fasting Blood Glucose, Fasting Insulin, HBA1c, BMI, AST, Triglycerides, Glucose Supply-Demand (S/D) index, and in some cases Proinsulin. […] Each of these parameters was mathematically arranged to increase as Metabolic Syndrome worsened, and weighted approximately equally in the prediction of Metabolic Syndrome progression and risk for CV events.
The FS index was then applied to well-studied patient populations using a neural net model.
[formula] Where FBG is Fasting Blood Glucose in mg/dl and normal value is 100 mg/dl TG is Triglycerides in mg/dl normal value is <150 HBA1c is hemoglobin A1c in %, normal value is <6% BMI is body mass index as kg/m2 where a normal value is 20 and obese begins above 25 AST is Aspartate Transferase also called SGOT in IU/liter and a normal value is 5-50 FB insulin is fasting Blood insulin concentration in nmol/liter, a normal value is 4.0

[3] = test system: intestinal carbohydrate absorption; details: Jackson; metformin, 75 g oral glucose load with labeled glucose, 3 h; cited from earlier work
insulin resistance (IR) [4] = details: cited from earlier work
[5] = test system: peripheral glucose uptake (PGU); test: Glucose supply and insulin demand model: effect on peripheral glucose uptake; format: in vivo, human
Protocol: as §1, §2, §3, §4

[6] = Metformin 2000 mg, Glyburide 10 mg, Pioglitazone 45 mg, Insulin Glargine 0.5 U/kg daily, pH encapsulated glucose 3.0 grams/day

Compound: CN(C)C(=N)N=C(N)N [Metformin]
- Score IR (insulin resistance (IR) [1]; [6]): 0.38
- IR reduction (insulin resistance (IR) [1]; adjustment factor = decrease in insulin resistance at the therapeutic dose of Table 1, T2D): 0.38
- Score HGU [2, 6]: 0.40
- HGU uptake ([2]; adjustment factor = increase in hepatic glucose uptake at the therapeutic dose of Table 1, T2D): 0.40
- FS index response to treatment (metabolic syndrome; normal 20-50, 61 T2D on metformin, 100 RYGB, 18 Brake, 33 exenatide, 12 sitagliptin patients): Their FS index rises; also recorded: flat or slowly rising
- other parameters of metabolic syndrome (BMI/weight, HBSD, lipids, NAFLD, blood pressure, insulin) (metabolic syndrome; same patient populations as FS index): their HBSD rises, they gain weight
- absorption of glucose [3]: slightly delayed, but ultimately unaltered
- reduction of calculated IR (insulin resistance (IR) [4]; T2D patients, maximal therapeutic doses of metformin (Iozzo, Stumvoll, Tiikkainen, Sharma)): 38-44%
- reduction of calculated IR (HOMA-IR) (insulin resistance (IR) [4]; meta-analysis of randomized controlled trials, people at risk for T2D, metformin): 22.6%
- Score PGU [5, 6]: 0.14
- PGU ([5]; adjustment factor = increase in peripheral glucose uptake at the therapeutic dose of Table 1, T2D): 0.14

Source: patent publication US9443060B2, “Method and system to provide personalized pharmaceutical compositions and dosages” (Volant Holdings GMBH, priority 2009, dated 2016)
